Reference: article PMC11235159, “Targeting a microbiota Wolbachian aminoacyl-tRNA synthetase to block its pathogenic host” (Science Advances, 2024)
Like-named read-outs stand apart in the source and are kept apart here.

Tests used:
[1] = molecular target: Wolbachia LeuRS (Wolbachia sp. subsp. Brugia malayi, UniProt Q5GS31); details: ITC; for -T∆S / ∆G / ∆H: in the presence of AMP; for binding to Wolbachia LeuRS (in words): in the absence of AMP
From the text: We designed constructs of the Wolbachia LeuRS editing domain (fig. S1), which bear the putative drug-binding pocket, for expression and purification of recombinant proteins. Two constructs gave soluble and well-behaving proteins that were used for biophysical and structural studies: a construct encoding for residues 219 to 418, herein named Wolbachia LeuRS; and another construct named Wolbachia LeuRS D1, for which part of an insertion specific to Wolbachia LeuRS (herein denoted as i1) and predicted to be highly disordered was partially deleted (354 to 377) (fig. S1). […] To quantitatively assess the affinity of these compounds to Wolbachia LeuRS, isothermal titration calorimetry (ITC) experiments were carried out.
ITC measurements were performed on a MicroCal iTC200 (GE Healthcare, PA) at 25°C. Wolbachia LeuRS samples were previously dialyzed into the ITC buffer 50 mM Hepes-KOH, pH 7.5, 30 mM KCl, 30 mM MgCl2, and 5 mM β-mercaptoethanol and adjusted to a final concentration of 70 μM. […] A typical ITC experiment consisted of 26 injections of 1.5 μl every 180 s at a stirring speed of 750 rpm. The raw data were processed using MicroCal PEAQ-ITC (v. 1.0.0.1259, Malvern) and Microcal Origin for ITC (v. 7.0).
Thermodynamic parameters were calculated from fitting the binding isotherms to a one-site binding site and
independent model. Experiments were done at least in duplicates.
All the experiments were performed in the presence of AMP, which acts as a surrogate of ATP or tRNALeu
terminal adenosine (Ade76).

[2] = molecular target: T1, Wolbachia LeuRS (full-length) (Wolbachia sp. subsp. Brugia malayi, UniProt Q5GS31); experiment: Reactivation rate (half-life of inhibition) of Wolbachia LeuRS after dilution of inhibitor complex; format: biochemical; details: time for LeuRS to recover 50% of its activity after 200-fold dilution
Description: Wolbachianinfection model.
All reactions were performed in […]

[3] = tested on: W. pipientis (wAlbB) in C6/36 cells; experiment: A·WOL anti-Wolbachia screening assay in infected C6/36 (wAlbB) insect cells; format: cell-based, Wolbachia pipientis; details: for EC50: Wolbachia pipientis, 168 h, 7 days
From the text: To identify active compounds against Wolbachia, we carried out a high-throughput screening assay by testing a library of 202 benzoxaborole compounds in a host-cell model of Wolbachia infection ([5], [18]), which yielded an 18% hit rate. […] The screening in cells was combined with activity experiments (aminoacylation) performed with recombinant full-length Wolbachia LeuRS protein, which were used to calculate the half-maximum inhibitory concentration (IC50) for the most interesting compounds identified in the cell screening. Thus, this yielded compounds with both good anti-Wolbachian in vitro activity and in vivo efficacy, with representative compounds shown in table S1. […] Moreover, the potent in vitro activity of Cmpd9 translated in very good in cellulo efficacy (EC50 = 90 nM) in the Wolbachia infection model (Fig. 1, D and E, and table S1).
The efficacy of compounds, determined as EC50 against Wolbachia in infected host cells, was determined through the anti-Wolbachia consortium’s (A·WOL) routine screening assay as described previously ([18], [27], [29]). […] Compounds were incubated for 7 days with 2000 cells per well on a 384-well plate (CellCarrier-384 Ultra, PerkinElmer) in Leibovitz media (Life Technologies) supplemented with 20% fetal bovine serum (FBS, Thermo Fisher Scientific), 2% tryptose phosphate broth (Sigma-Aldrich), and 1% nonessential amino acids (Sigma-Aldrich). The endpoint readout utilized DNA staining of both the host cell nuclei and intracellular Wolbachia (SYTO 11) combined with a high content imaging system (Operetta, PerkinElmer) and analyzed using the associated Harmony software through a cytoplasm texture analysis. Stock solutions at 10 mM of chemical compounds were prepared in dimethyl sulfoxide (DMSO). Chemical compounds were provided by chemical manufactures (ChemPartner and Anacor Pharmaceuticals), and quality control was verified by NMR spectroscopy (^1H-NMR) and liquid chromatography coupled to mass spectrometry. […]
†The half-maximum effective concentrations (EC50) were calculated in cells infected with Wolbachia […]

[4] = molecular target: Wolbachia LeuRS (residues 219 to 418) (Wolbachia sp. subsp. Brugia malayi, UniProt Q5GS31); experiment: Thermal shift assay (DSF), Wolbachia LeuRS editing domain; format: binding; details: wild-type Wolbachia LeuRS construct, in the presence of AMP, vs free protein
Description: The thermal shift assays (TSAs) were performed using a qPCR CFX96 (Bio-Rad) with the FRET scan mode. Samples were prepared in a TSA buffer containing 50 mM Hepes (pH 7.5) and 150 mM NaCl. Each well contained 2 μl of samples as prepared for the crystallization trials, 18 μl of TSA buffer, and 20 μl of 10× SYPRO orange (S6650, Thermo Fisher Scientific).

[5] = ITC titration of compound into AMP in the absence of protein (adduct formation); format: binding; details: no protein
Description: To quantitatively assess the formation of the adenosine-based inhibitor adducts, we performed ITC experiments by titrating Cmpd9 into AMP in the absence of protein (fig. S3D). […]
spectra of AMP/ATP alone or in equimolar (5 mM) mixtures with Cmpd6. A zoomed-in view on the aromatic NMR signals of AMP/ATP is shown. Upon addition of the compounds, the NMR signals of the aromatic groups of AMP/ATP split into an additional two peaks corresponding to the two adducts formed. (C) Spontaneous cyclization of Cmpd6 with ATP/AMP leading to the formation of two diastereomer adducts based on the pseudo symmetry of the ribose. For convenience, adducts with an exo-ribose in panel c) are denote as ty pe “a”, and those with endo-ribose as adducts of type “b”. (D) Isothermal Titration Calorimetry experiment with Cmpd9 injected into AMP leading to the formation of adducts by Cmpd9.
The experiment was performed in triplicate.

[6] = molecular target: T1, Wolbachia LeuRS (full-length); experiment: biochemical
Description: The full-length Wolbachia LeuRS construct corresponds to residues 1 to 865 of Wolbachia sp. Brugia malayi (Uniprot Q5GS31).
The IC50 values were calculated using a similar approach as described earlier ([19], [20]). Briefly, Wolbachia full-length LeuRS, total E. coli tRNA crude extract (Roche), and compounds were preincubated for 20 min in 50 mM Hepes-KOH (pH 8.0), 30 mM MgCl2, 30 mM KCl, 0.02% (wt/vol) bovine serum albumin, and 1 mM dithiothreitol with 20 μM [^14C]leucine (306 mCi/mmol; PerkinElmer) at 30°C. Reactions were started by the addition of 4 mM ATP and, at specific times, tRNA was precipitated by the addition of 10% (w/v) trichloroacetic acid (TCA), recovered by filtration (Millipore Multiscreen; MSHAN4B50), washed with 5% TCA (w/v), and counted by a liquid scintillation counter (Wallac). […] The reactivation rates (T½) were determined by measuring the time required for Wolbachia LeuRS to recover 50% of its activity. […] LeuRS inhibitor complexes were then diluted 200-fold, and enzyme activity was determined at various time intervals, as described before. Compound reactivation rates were determined by fitting the LeuRS activity reactivation curves to a one-phase exponential decay model (GraphPad Prism).
*The half-maximum inhibitory concentrations (IC50) and half-life inhibition times (T ½) were calculated from aminoacylation assays with recombinant protein and tRNA (see methods). […]

T1 sequence (Q5GS31 whole entry): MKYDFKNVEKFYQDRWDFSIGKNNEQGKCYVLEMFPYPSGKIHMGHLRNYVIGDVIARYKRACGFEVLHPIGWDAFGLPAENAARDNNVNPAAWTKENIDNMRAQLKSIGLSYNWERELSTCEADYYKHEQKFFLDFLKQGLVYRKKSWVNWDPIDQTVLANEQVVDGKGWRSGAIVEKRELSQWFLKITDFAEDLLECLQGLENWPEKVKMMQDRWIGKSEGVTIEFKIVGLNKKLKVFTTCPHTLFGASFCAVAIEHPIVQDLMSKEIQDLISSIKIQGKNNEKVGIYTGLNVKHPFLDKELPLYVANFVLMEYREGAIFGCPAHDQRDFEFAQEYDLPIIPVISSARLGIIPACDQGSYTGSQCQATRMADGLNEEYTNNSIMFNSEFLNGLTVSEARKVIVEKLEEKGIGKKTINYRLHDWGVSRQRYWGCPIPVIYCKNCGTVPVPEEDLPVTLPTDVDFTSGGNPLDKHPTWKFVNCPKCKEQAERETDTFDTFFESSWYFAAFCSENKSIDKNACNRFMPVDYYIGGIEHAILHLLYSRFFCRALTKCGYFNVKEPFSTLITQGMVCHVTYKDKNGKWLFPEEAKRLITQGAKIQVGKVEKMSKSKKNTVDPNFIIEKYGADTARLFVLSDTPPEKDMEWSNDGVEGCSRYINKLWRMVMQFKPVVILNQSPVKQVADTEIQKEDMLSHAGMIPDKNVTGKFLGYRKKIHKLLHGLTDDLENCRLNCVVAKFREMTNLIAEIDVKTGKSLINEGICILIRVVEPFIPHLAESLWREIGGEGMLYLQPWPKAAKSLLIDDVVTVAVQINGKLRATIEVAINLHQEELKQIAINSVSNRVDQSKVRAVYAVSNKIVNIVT
Chain of Wolbachia LeuRS (Q5GS31 219-418): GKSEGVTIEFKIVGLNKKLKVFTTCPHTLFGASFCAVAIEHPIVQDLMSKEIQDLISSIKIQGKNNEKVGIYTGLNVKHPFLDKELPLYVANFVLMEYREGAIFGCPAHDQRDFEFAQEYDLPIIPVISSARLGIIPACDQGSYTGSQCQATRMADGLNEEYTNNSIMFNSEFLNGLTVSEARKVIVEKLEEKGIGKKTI
Chain of Wolbachia LeuRS (residues 219 to 418) (Q5GS31 219-418): as above

Row | SMILES | -T∆S [1] [kcal/mol] | ∆G [1] [kcal/mol] | ∆H [1] [kcal/mol] | T ½ (half-life inhibition time, reactivation rate) [2] [h] | Wolbachia load in host cells (in words) ([3]; 9 μM for 7 days, C6/36 (wAlbB)) | EC50 ([3]; Wolbachia infection model, C6/36 (wAlbB), read-out: in cellulo efficacy EC50) [µM] | increase of the melting temperature ∆Tm [4] [°C] | Kd ([5]; compound titrated into AMP, one-site binding model) [µM] | binding to Wolbachia LeuRS (in words) [1] | IC50 [6] [µM] | EC50 ([3]; C6/36 (wAlbB) cells, read-out: Efficacy in Infected Host EC50) [µM] | binding isotherm with AMP (in words) ([5]; compared with Cmpd9 into AMP)
1 | CCCC(N)C(=O)NC1C(O)C(CO)OC1n1cnc2c(N)ncnc21 (stereo not shown) [Nva2AA, reference compound] | 1.79 | -5.94 | -7.73 | – | – | – | – | – | – | – | – | –
2 | CN(CCCOc1ccc(Br)c2c1B(O)O[C@@H]2CN)Cc1ccccc1 [Cmpd9] | -5.31 | -11.24 | -5.93 | 3.77 | Reduction of Wolbachia load | 0.09 | 13 | 1000 | did not bind | 0.19 | – | –
3 | NC[C@H]1OB(O)c2c(OCCC(=O)Nc3nccs3)ccc(Br)c21 [Cmpd6] | -4.48 | -10.08 | -5.60 | 0.0183 | – | – | 13 | – | did not bind | 0.06 | > 10 | equivalent binding isotherm
